Measurements reported in PubChem BioAssay (NCI).
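Five concentrations, 48 hours, 96-well plates. GI50 = concentration required for 50% inhibition of growth. TGI marks complete inhibition of growth.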

Assays:
Assay in all cases: inhibition of tumour cell growth, NCI panel, 48 h
SN12C renal = system: SN12C renal
SR leukemia = system: SR leukemia
TK-10 renal = system: TK-10 renal
SK-MEL-28 melanoma = system: SK-MEL-28 melanoma
HCC-2998 colon = system: HCC-2998 colon
HCT-15 colon = system: HCT-15 colon
SW-620 colon = system: SW-620 colon
NCI/ADR-RES ovarian = system: NCI/ADR-RES ovarian
SNB-19 CNS = system: SNB-19 CNS
HCT-116 colon = system: HCT-116 colon
HOP-62 NSCLC = system: HOP-62 NSCLC
CAKI-1 renal = system: CAKI-1 renal
CCRF-CEM leukemia = system: CCRF-CEM leukemia
SNB-75 CNS = system: SNB-75 CNS
RXF 393 renal = system: RXF 393 renal
SK-MEL-2 melanoma = system: SK-MEL-2 melanoma
ACHN renal = system: ACHN renal
SF-295 CNS = system: SF-295 CNS
UACC-62 melanoma = system: UACC-62 melanoma
PC-3 prostate = system: PC-3 prostate
MOLT-4 leukemia = system: MOLT-4 leukemia
BT-549 breast = system: BT-549 breast
EKVX NSCLC = system: EKVX NSCLC
RPMI-8226 leukemia = system: RPMI-8226 leukemia
DU-145 prostate = system: DU-145 prostate
NCI-H460 lung = system: NCI-H460 lung
SF-539 CNS = system: SF-539 CNS
IGROV1 ovarian = system: IGROV1 ovarian

O=c1c2cc(-c3ccc(F)cc3F)ccc2n(Nc2ccccc2)c(=O)n1-c1cccc(C(F)(F)F)c1
GI50 (SN12C renal): 1000 nM | TGI (SN12C renal): 5010 nM | GI50 (SR leukemia): 1110 nM | TGI (SR leukemia): 4530 nM | GI50 (TK-10 renal): 3980 nM | TGI (TK-10 renal): 8500 nM | GI50 (SK-MEL-28 melanoma): 1280 nM | TGI (SK-MEL-28 melanoma): 4690 nM | GI50 (HCC-2998 colon): 2550 nM | TGI (HCC-2998 colon): 6840 nM | GI50 (HCT-15 colon): 812 nM | TGI (HCT-15 colon): 2550 nM | GI50 (SW-620 colon): 1510 nM | TGI (SW-620 colon): 3550 nM | GI50 (NCI/ADR-RES ovarian): 1910 nM | TGI (NCI/ADR-RES ovarian): 7740 nM | GI50 (SNB-19 CNS): 931 nM | TGI (SNB-19 CNS): > 100000 nM | GI50 (HCT-116 colon): 1030 nM | TGI (HCT-116 colon): 2340 nM | GI50 (HOP-62 NSCLC): 1800 nM | TGI (HOP-62 NSCLC): 4110 nM | GI50 (CAKI-1 renal): 1510 nM | TGI (CAKI-1 renal): 4370 nM | GI50 (CCRF-CEM leukemia): 1970 nM | TGI (CCRF-CEM leukemia): 9760 nM | GI50 (SNB-75 CNS): 1400 nM | TGI (SNB-75 CNS): 4860 nM | GI50 (RXF 393 renal): 1200 nM | TGI (RXF 393 renal): 2840 nM | GI50 (SK-MEL-2 melanoma): 532 nM | TGI (SK-MEL-2 melanoma): 2100 nM | GI50 (ACHN renal): 1810 nM | TGI (ACHN renal): 5310 nM | GI50 (SF-295 CNS): 1830 nM | TGI (SF-295 CNS): 3820 nM | GI50 (UACC-62 melanoma): 337 nM | TGI (UACC-62 melanoma): 1410 nM | GI50 (PC-3 prostate): 1350 nM | TGI (PC-3 prostate): 5190 nM | GI50 (MOLT-4 leukemia): 1790 nM | TGI (MOLT-4 leukemia): 5660 nM | GI50 (BT-549 breast): 1120 nM | TGI (BT-549 breast): 2530 nM | GI50 (EKVX NSCLC): 2350 nM | TGI (EKVX NSCLC): 7910 nM | GI50 (RPMI-8226 leukemia): 460 nM | TGI (RPMI-8226 leukemia): 2570 nM | GI50 (DU-145 prostate): 2560 nM | TGI (DU-145 prostate): 61700 nM | GI50 (NCI-H460 lung): 775 nM | TGI (NCI-H460 lung): 4390 nM | GI50 (SF-539 CNS): 1570 nM | TGI (SF-539 CNS): 5640 nM | GI50 (IGROV1 ovarian): 1910 nM | TGI (IGROV1 ovarian): 13300 nM
